Data as given in patent US5409946A, “Isoxazole, isothiazole and pyrazole compounds that enhance cognitive function” (Abbott Laboratories, priority 1993, dated 1995).
Entries after “also recorded” stand apart in the source; their conditions may differ.

Experiments:
[1] = system: basal forebrain neurotransmission / cortical cerebral blood flow; assay: Cerebral blood flow (laser-doppler flowmetry) and mean arterial pressure with basal forebrain stimulation; assay type: in vivo, male Sprague-Dawley rats
Procedure: Methods for surgical preparation of rats for electrical stimulation of brain and measurement of CBF have been previously described (Nakai et al., Am. J. Physiol., 1982, 243: 226) and are summarized below.
Studies are conducted on male Sprague-Dawley rats that are maintained in a thermally-controlled (26°-27° C.), light-cycled (7.00 hour on-19.00 hour off) environment, fed standard rat chow and given water ad libitum. Anesthesia is induced with halothane (3.5%; balance O2) delivered through a nose mask and maintained at 2% during the initial surgery. Thin-wall vinyl catheters (o.d.=0.03 inch) are placed in each femoral artery and vein, and the trachea is cannulated.
Animals are subsequently co-anesthetized with urethane (1.5 g/kg, s.c.) and placed in a stereotaxic frame with the head positioned so that the floor of the IVth ventricle was horizontal (incisor bar position: -11 mm. ). After connecting the tracheal cannula to a small-animal respirator, the animals are temporarily paralyzed with d-tubocurarine (0.6 mg/kg/h, i.m.), and ventilated (80 cpm) with 100% O2. Arterial pressure (AP) and heart rate (HR) are continuously monitored through one of the arterial catheters connected to a Statham P23Db transducer that is coupled to a chart recorder. The level of anesthesia during surgery or subsequent experimental testing is assessed by the AP response to tail pinch, with increasing levels of arousal giving rise to irregular AP readings. Booster doses of urethane (250 mg/kg, s.c.) are given as needed.
Bilateral craniotomies (approximately 4 mm×11 mm) are performed overlying the frontoparietal cortices taking care to leave the dura intact. Halothane is delivered at a reduced rate of 1% during cranial surgery and discontinued afterward. A small volume (about 0.2 ml) of arterial blood is sampled after completion of all surgery for measurement of PO2, PCO2 and pH by a blood gas analyzer. Arterial blood gases are maintained so that PO2 was greater than 100 mm Hg, PCO2 =33-38 mmHg, and pH=7.35-7.45. Maintaining these values is accomplished by adjusting the stroke volume of the ventilator. Once appropriate physiological parameters are obtained (approximately 30 min), the experimental protocol is initiated.
The basal forebrain (BF) is stimulated with cathodal current delivered through a stainless steel concentric bipolar electrode ([…]) made by Rhodes Medical Instruments (Model SNEX-100). Electrical pulses are generated by a square wave stimulator (Grass, Model S-88) and constant current is passed through a photoelectric stimulus-isolation unit (Grass, Model PSIU6). The stimulus current is measured on an oscilloscope by continuously displaying the voltage drop across a 10-ohm resistor.
The procedure for eliciting an increased cortical CBF response requires the stereotaxic placement of the stimulating electrode into the BF. For positioning, the electrode is inclined posteriorly to 18 degrees, and the stereotaxic coordinates used were 5.0 mm posterior to, and 2.6 mm lateral to bregma (stereotaxic zero reference point). […] These parameters have been shown previously to elicit maximal increases in cortical CBF (Arneric, Excerpta Medica International Congress Series, 869:381, 1989). The region of the BF that selectively affects cortical CBF is restricted, with electrode movements of 0.5 mm dorsal or ventral to this site eliciting potent vasodepressor responses in addition to the increases in CBF. […] When CBF increases of approximately 100% or greater are repeatedly obtained in the absence of significant changes in AP (<10 mm Hg) or HR (<10 beats/min.), and when the perfusion rate is stable in the absence of BF stimulation, the experimental testing is started.
The principles and technical aspects of laser-doppler flowmetry (LDF) are presented in detail in Bonner et al., Appl. Opt., 1981, 20:2097 and Stern et al., Am. J. Physiol., 1977, 232:H441. […]

[2] = system: neuronal nicotinic cholinergic channels in PC12 cells; assay: Cholinergic channel activator action in PC12 cells, whole-cell patch-clamp; assay type: cell-based, rat; settings: PC12 cells; mean ± S.E.M.
Procedure: Electrophysiologic recordings were obtained from differentiated (neurite-bearing) cells after 4-7 days exposure to NGF. […] After 20 minutes, differentiating medium was added (DMEM containing 100 ng/ml nerve growth factor, 5% heat-inactivated fetal calf serum and 2.5% heat-inactivated horse serum) and the cells were refed with this medium every 3 days.
The intracellular (recording pipette) solution consisted of 140 mM KCl, 1.0 mM CaCl2, 2.0 mM MgCl2, 11 mM K-EGTA, and 10 mM K-HEPES buffer (7.3 pH, 315 mOsm). Osmolarities were adjusted using dextrose such that the extracellular solution was 10 mOsm hypertonic compared to the intracellular solution. Voltage-gated inward (sodium) and outward (potassium) currents were monitored throughout the experiment to determine establishment and maintenance of the whole-cell recording configuration.

[3] = system: time spent in the open arms (anxiolytic activity); assay: Mouse elevated plus-maze; assay type: in vivo, CD1 mice
Source text: The mouse elevated plus-maze is a commonly-used conflict test that probes anxiolytic activity of test compounds (Lister, Psychopharmacology, 1987, 92 180). It is based on the fact that exposure of mice to an elevated open arm leads to an avoidance response considerably stronger than that evoked by exposure to an enclosed arm.
The apparatus required to perform this test is made of plywood and consists of two open arms (17×8 cm) and two enclosed arms (17×8×15 cm) extending from a central platform (8×8 cm). It is mounted on a plywood base rising 39 cm above the floor. Mice are released on the central platform and the time spent in the open and enclosed arms is recorded during a 5 minute test period.
The compound of Example 2 (0.0108-1.08 μmol/kg, i.p.) was administered to CD1 mice (n=12 per group) 15 minutes before the test.

Cc1cc([C@@H]2CCCN2C)on1.O=C(O)C(=O)O [Example 2, 3-Methyl-5-(1-methyl-2(S)-pyrrolidinyl)-isoxazole oxalate salt]
BF-elicited CBF % change from pre-drug control ([1]; 0.004 μmol/kg i.v.): +68% | MAP % change from pre-drug control ([1]; 0.004 μmol/kg i.v.): +5% | resting CBF % change from pre-drug control ([1]; 0.004 μmol/kg i.v.): +5% | MAP % change from pre-drug control ([1]; 0.040 μmol/kg i.v.): -5% | resting CBF % change from pre-drug control ([1]; 0.040 μmol/kg i.v.): -2% | BF-elicited CBF % change from pre-drug control ([1]; 0.040 μmol/kg i.v., *p < 0.05): +60% | MAP % change from pre-drug control ([1]; 0.400 μmol/kg i.v.): -13% | resting CBF % change from pre-drug control ([1]; 0.400 μmol/kg i.v.): -6% | BF-elicited CBF % change from pre-drug control ([1]; 0.400 μmol/kg i.v., *p < 0.05): +68% | effect on resting CBF and the BF-elicited CBF response ([1]; i.v., low concentrations, n=3): effective in enhancing resting CBF and the BF-elicited CBF response | effects on MAP / blood pressure ([1]; i.v., oxalate salt): No remarkable effects on MAP; also recorded: no overt effects on blood pressure | EC50 [2]: 209 ± 76 µM | Elevated Plus-Maze (EPM) doses with significant effect ([3]; i.p., p<0.05): 0.036 to 1.08 µmol/kg | Elevated Plus-Maze (EPM) result ([3]; i.p., time in open arms, p<0.05, oxalate salt): clear anxiolytic response; also recorded: significant | anxiolytic potency relative to (-)-nicotine ([3]; more potent than (-)-nicotine): at least 10 fold
